Assay results as given in US5235045A, “Non-azo naphthalimide dyes” (priority 1992, dated 1993).
Like-named read-outs stand apart in the source and are kept apart here.

Key:
[1] = tested on: cytochrome c; assay: Effect of irradiation on membrane-bound protein function: oxidation of vesicle-bound cytochrome c by CO(phen)3^3+; type: biochemical; conditions: 1×10^-7 M dye, irradiated; pH 7.5, 20° C.; without dye 25±1
Procedure: Cytochrome C, a mitochondrial protein which is peripherally associated with membranes was studied as a model for the effect of photomodification of the membrane lipids on protein function. At pH 7.5 and 20° C., the rate of oxidation of vesicle-bound cytochrome c (7×10^-6 M) by CO(phen)3^3 + was 25±1 s^-1. Upon addition of Compound VII (1×10^-7 M) to the vesicles containing reduced cytochrome c, and subsequent irradiation as described above, the rate constant for oxidation of the bound cytochrome c under the same conditions was reduced to 2±1 s^-1.

[2] = tested on: DAUDI cells; assay: Photoinduced cell kill of DAUDI cells ([3H]-thymidine incorporation); type: cell-based; conditions: for CPM ([3H]-thymidine incorporation): 10% FCS medium
Procedure: An additional study using DAUDI cells and lower concentrations of Compound VII was performed according to the same protocol for studying the photochemical kill of H9 cells mediated by Compound VII. Viability was determined by the trypan blue assay above, as well as by [^3 H]-thymidine incorporation. The [^3 H]-thymidine incorporated protocol was as follows:
After irradiation, the cells were diluted to 3×10^5 cells/ml with medium containing twice the normal concentration of gentamycin. The cells were pipetted into a 96-well TC plat (100 μl/well) and incubated at 37° C. in a 5% CO2 incubator for 36 hours. At this time 1 μCi of [^3 ]-thymidine was added and allowed to incorporate for 6 hours. The cells were then harvested on glass fiber filters and placed into scintillation vials to which cocktail was added. The samples were counted on a Beckman model LS 6000IC scintillation counter.

[3] = tested on: BHV-1 antigen; assay: Surface antigen assays of BHV-1 on FBL cells; type: cell-based, Bovine Herpes Virus Type I (BHV-1)
Procedure: Surface Antigen Assays The BHV-1 virus prepared as above (20480 TCID50) was (i) held as control; (ii) treated with dye (concentrations from 7.5 to 250 ng/ml) in cell culture medium; or (iii) treated with Compound VII and light-treated in cell culture medium. All virus was plated in 96-well flat bottom plates for 24 hours in 5x replicates on FBL cells. At that time the wells were examined for CPE, scored, and 2x wells were fixed in acetone and paraformaldehyde for examination of intracellular and surface BHV-1 antigen, respectively. The cells were treated with 50 μl of an anti-BHV-1 monoclonal antibody (gift of Dr. J. Collins, Diagnostic Laboratory, Colorado State University, School of Veterinary Medicine) used as a common diagnostic reagent, for 30 minutes at room temperature. The cells were further stained with either FITC-labeled anti-mouse or biotinylated anti-mouse and avidin rPE. The samples were placed on slides and read by fluorescent microscopy using a 495 nm excitor filter and 525 long pass emission filter on a Leitz epifluorescent microscope.

[4] = tested on: H9 cells; assay: Effects on H9 cells of Ed6Br with prior activation by 420 nm light (Trypan Blue); type: cell-based; conditions: Homo sapiens, H9, 24 h, read-out: % Viable Cells
Procedure: H9 cells were cultivated in RPMI-1640 medium containing an additional 10% fetal calf serum at 37.5° C. in air having added 5% CO2. A 5.46 ml aliquot of cell suspension containing 9.16×10^5 H9 cells per ml was harvested, the cells sedimented at 450 x g for 10 minutes and resuspended in fresh growth medium. Two hundred microliter aliquots of the suspension were centrifuged as above and the resulting cell pellet served for resuspension in dye plus medium suspension for this study.
Six milliliters of suspension of Cremophor EL micelles containing Ed6Br in RPMI-1640 containing 10% additional fetal calf serum was made by diluting a 2.5 millimeter solution of the dye in Cremophor EL to give an average Ed6Br concentration of […], and the resulting suspension divided into 2 three milliliter aliquots. One aliquot was irradiated with 420 #5 nm light filtered from a xenon arc lamp at an irradiance of 20 mW/cm^2 to a total fluence of 200 J/cm^2. The companion aliquot was wrapped in aluminum foil and handled in identical fashion to the irradiated sample. These two aliquots served as stocks for deforming effects of both previously irradiated and un-irradiated Ed6Br at different concentrations from 0 up to 100 mM on H9 cells kept in the dark. Dulutions of the stock dye suspension into additional fresh growth medium were made within 1 hour of light irradiation to give dye-medium suspensions with average Ed6Br concentrations of […] for both previously irradiated and dark dye samples. The H9 cell pellets were resuspended in these dye-Cremophor EL suspensions and held at 37.5° C. in an air atmosphere containing an additional 5% CO2. After 24 hrs. culture of the number of total and viable […] was determined by Trypan Blue exclusion using a hemocytometer and microscope for cell counting.

[5] = Tissue bonding of beef muscle strips with DiEd6Br and light; conditions: 0.1 millimolar
From the text: Bonding together of the overlapping surfaces of two strips of swine dura mater and of two thin slices of beef muscle with application of DiEd6Br in Cremophor EL as a carrier and irradiation with 420 # 5 nm light filtered from a xenon arc lamp were studied.
Thin strips approximately 10 cm long, 1 cm wide, and 0.05-0.1 cm thick were sliced from beef steak obtained from a local meat market. Surfaces of the strips of two sample pairs were coated with a stock solution of DiEd6Br in Cremophor EL (0.1 millimolar concentration) and placed together to give approximately 2 cm overlap. One overlapping strip sample was irradiated for 24 hours with water-filtered (IR spectrum absorber) light from a 150 w xenon arc lamp. Beam diameter incident on the sample was approximately 3 cm. The other sample was wrapped in aluminum foil, placed alongside the irradiated sample, and served as dark control.

[6] = photochemically attenuated virus
[7] = virus and dye, dark control, 7.5 to 250 ng/ml

Question: Which results are given for `CCCCCCNc1c(Br)cc2c3c(cccc13)C(=O)N(CCCCCC)C2=O` [Compound VII, 3-bromo-4-(hexyl)amino-N-hexyl-1,8-naphthalimide]?
Answer: rate constant for oxidation of bound cytochrome c [1]: 2 ± 1 s⁻¹; CPM ([3H]-thymidine incorporation) ([2]; 1 μM, hν): 1.2 ± 0.4 × 10^2 CPM; CPM ([3H]-thymidine incorporation) ([2]; 1 μM, no hν): 5.1 ± 0.3 × 10^4 CPM; CPM ([3H]-thymidine incorporation) ([2]; 5 μM, hν): 1.1 ± 0.3 × 10^2 CPM; CPM ([3H]-thymidine incorporation) ([2]; 5 μM, no hν): 4.8 ± 0.3 × 10^4 CPM; CPM ([3H]-thymidine incorporation) ([2]; 10 μM, hν): 1.0 ± 0.4 × 10^2 CPM; CPM ([3H]-thymidine incorporation) ([2]; 10 μM, no hν): 4.5 ± 0.2 × 10^4 CPM; photochemical cell inactivation ([2]; concentrations as low as 1 μM, 10J/cm^2): highly efficient photochemical cell inactivator; internal viral antigen [3, 6]: internal antigen was observed at all concentrations of Compound VII which showed CPE; surface viral antigen [3, 6]: Surface antigen was observed at all concentrations; internal viral antigen [3, 7]: Internal antigen was observed and correlated with CPE levels; surface viral antigen [3, 7]: Much surface viral antigen was detected at all dye concentrations; viability at 1 µM ([4]; no previous light activation): 72.7%; viability at 1 µM ([4]; previous light activation): 68.4%; viability at 10 µM ([4]; no previous light activation): 77.2%; viability at 10 µM ([4]; previous light activation): 31.8%; viability at 25 µM ([4]; no previous light activation): 57.9%; viability at 25 µM ([4]; previous light activation): 4.9%; viability at 50 µM ([4]; no previous light activation): 27.4%; viability at 50 µM ([4]; previous light activation): 0%; viability at 75 µM ([4]; no previous light activation): 33.9%; viability at 75 µM ([4]; previous light activation): 0%

Question: Which results are given for `CCCCCCN1C(=O)c2cccc3c(NCCNC(=O)CCCCC(=O)NCCNc4c(Br)cc5c6c(cccc46)C(=O)N(CCCCCC)C5=O)c(Br)cc(c23)C1=O` [Compound XLIV]?
Answer: bonding of strips ([5]; dark control): separated under their own weight; bonding of strips ([5]; irradiated 24 hours): discernable tactile finger pressure was felt when two hands were used to pull the irradiated strip apart, indicating bonding of the strip surface
